Legend:
Test in all cases: Histone peptide microarray
Assay type in all cases: binding, human
[1] = system: TAF3; conditions: sheet "Array Heatmap"; GST-tagged TAF3; arrays performed twice, total replicate number n = 4
Outline: (§1)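 Histone peptide library (293 synthetic peptides, single/combinatorial PTMs) arrayed and probed with 0.5 μM purified GST-PHD domain; optimized protocol; quadruplicate mean and SD reported.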

[2] = system: KDM5A (1); conditions: sheet "Array Heatmap"; GST-tagged KDM5A (1); arrays performed twice, total replicate number n = 4
Outline: as §1

[3] = system: ING2; conditions: sheet "Array Heatmap"; GST-tagged ING2; arrays performed twice, total replicate number n = 4
Outline: as §1

[4] = system: PHF2; conditions: sheet "Array Heatmap"; GST-tagged PHF2; arrays performed twice, total replicate number n = 4
Outline: as §1

[5] = system: KDM4C (TTP); conditions: sheet "Array Heatmap"; GST-tagged KDM4C (TTP); arrays performed twice, total replicate number n = 4
Outline: as §1

[6] = system: KDM5B (3); conditions: sheet "Array Heatmap"; GST-tagged KDM5B (3); arrays performed twice, total replicate number n = 4
Outline: as §1

[7] = system: PHF21A; conditions: sheet "Array Heatmap"; GST-tagged PHF21A; arrays performed twice, total replicate number n = 4
Outline: as §1

[8] = system: PHF13; conditions: sheet "Array Heatmap"; GST-tagged PHF13; arrays performed twice, total replicate number n = 4
Outline: as §1

[9] = system: AIRE (PP); conditions: sheet "Array Heatmap"; GST-tagged AIRE (PP); arrays performed twice, total replicate number n = 4
Outline: as §1

[10] = system: KDM5B (1); conditions: sheet "Array Heatmap"; GST-tagged KDM5B (1); arrays performed twice, total replicate number n = 4
Outline: as §1

[11] = system: BPTF (PB); conditions: sheet "Array Heatmap"; GST-tagged BPTF (PB); arrays performed twice, total replicate number n = 4
Outline: as §1

[12] = system: KDM5A (3); conditions: sheet "Array Heatmap"; GST-tagged KDM5A (3); arrays performed twice, total replicate number n = 4
Outline: as §1

[13] = system: MLL5; conditions: sheet "Array Heatmap"; GST-tagged MLL5; arrays performed twice, total replicate number n = 4
Outline: as §1

[14] = system: BAZ2B; conditions: sheet "Array Heatmap"; GST-tagged BAZ2B; arrays performed twice, total replicate number n = 4
Outline: as §1

[15] = system: CHD5 (PPCC); conditions: sheet "Array Heatmap"; GST-tagged CHD5 (PPCC); arrays performed twice, total replicate number n = 4
Outline: as §1

[16] = system: TRIM66 (PB); conditions: sheet "Array Heatmap"; GST-tagged TRIM66 (PB); arrays performed twice, total replicate number n = 4
Outline: as §1

[17] = system: ING5; conditions: sheet "Array Heatmap"; GST-tagged ING5; arrays performed twice, total replicate number n = 4
Outline: as §1

[18] = system: ING3; conditions: sheet "Array Heatmap"; GST-tagged ING3; arrays performed twice, total replicate number n = 4
Outline: as §1

[19] = system: DIDO1; conditions: sheet "Array Heatmap"; GST-tagged DIDO1; arrays performed twice, total replicate number n = 4
Outline: as §1

[20] = system: PHF23; conditions: sheet "Array Heatmap"; GST-tagged PHF23; arrays performed twice, total replicate number n = 4
Outline: as §1

[21] = system: MORC3 (CW); conditions: sheet "Array Heatmap"; GST-tagged MORC3 (CW); arrays performed twice, total replicate number n = 4
Outline: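 Each reader, produced as a GST fusion and purified, was tested at 0.5 μM on synthetic histone peptides (293 in total) carrying single or combinatorial marks. Intensities averaged over four replicates.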

[22] = system: DPF2 (PPC2W2); conditions: sheet "Array Heatmap"; GST-tagged DPF2 (PPC2W2); arrays performed twice, total replicate number n = 4
Outline: as §1

[23] = system: ING1; conditions: sheet "Array Heatmap"; GST-tagged ING1; arrays performed twice, total replicate number n = 4
Outline: as §1

[24] = system: PHRF1 (RP); conditions: sheet "Array Heatmap"; GST-tagged PHRF1 (RP); arrays performed twice, total replicate number n = 4
Outline: as §1

[25] = system: SP140L; conditions: sheet "Array Heatmap"; GST-tagged SP140L; arrays performed twice, total replicate number n = 4
Outline: as §1

[26] = system: ING4; conditions: sheet "Array Heatmap"; GST-tagged ING4; arrays performed twice, total replicate number n = 4
Outline: as §1

[27] = system: RAG2; conditions: sheet "Array Heatmap"; GST-tagged RAG2; arrays performed twice, total replicate number n = 4
Outline: as §1

[28] = system: CHD5 (PCC); conditions: sheet "Array Heatmap"; GST-tagged CHD5 (PCC); arrays performed twice, total replicate number n = 4
Outline: as §1

[29] = system: CHD4 (PPCC); conditions: sheet "Array Heatmap"; GST-tagged CHD4 (PPCC); arrays performed twice, total replicate number n = 4
Outline: as §1

[30] = system: PHF8; conditions: sheet "Array Heatmap"; GST-tagged PHF8; arrays performed twice, total replicate number n = 4
Outline: as §1

[31] = system: KDM7A; conditions: sheet "Array Heatmap"; GST-tagged KDM7A; arrays performed twice, total replicate number n = 4
Outline: as §1

Substance | Array Heatmap signal, TAF3 [1] | Array Heatmap signal, KDM5A (1) [2] | Array Heatmap signal, ING2 [3] | Array Heatmap signal, PHF2 [4] | Array Heatmap signal, KDM4C (TTP) [5] | Array Heatmap signal, KDM5B (3) [6] | Array Heatmap signal, PHF21A [7] | Array Heatmap signal, PHF13 [8] | Array Heatmap signal, AIRE (PP) [9] | Array Heatmap signal, KDM5B (1) [10] | Array Heatmap signal, BPTF (PB) [11] | Array Heatmap signal, KDM5A (3) [12] | Array Heatmap signal, MLL5 [13] | Array Heatmap signal, BAZ2B [14] | Array Heatmap signal, CHD5 (PPCC) [15] | Array Heatmap signal, TRIM66 (PB) [16] | Array Heatmap signal, ING5 [17] | Array Heatmap signal, ING3 [18] | Array Heatmap signal, DIDO1 [19] | Array Heatmap signal, PHF23 [20] | further results
H3.3K27me1: H3.3 15-34 [Peptide H3.3K27me1] | 0.2716 | 0.5094 | 0.5862 | 0.3646 | 0.5409 | 0.4744 | 0.4715 | 0.6089 | 0.5413 | 0.6832 | 0.3434 | 0.366 | 0.5371 | 0.5147 | 0.5646 | 0.534 | 0.3774 | 0.4473 | 0.5418 | 0.4768 | Array Heatmap signal, MORC3 (CW) [21]: 0.3133; Array Heatmap signal, DPF2 (PPC2W2) [22]: 0.6219; Array Heatmap signal, ING1 [23]: 0.4683; Array Heatmap signal, PHRF1 (RP) [24]: 0.3762; Array Heatmap signal, SP140L [25]: 0.3662; Array Heatmap signal, ING4 [26]: 0.4785; Array Heatmap signal, RAG2 [27]: 0.2345; Array Heatmap signal, CHD5 (PCC) [28]: 0.7906; Array Heatmap signal, CHD4 (PPCC) [29]: 0.5655; Array Heatmap signal, PHF8 [30]: 0.3072; Array Heatmap signal, KDM7A [31]: 0.4745
H3.3K27me2 + S28p: H3.3 15-34 | 0.2725 | 0.4568 | 0.6211 | 0.5406 | 0.4645 | 0.4734 | 0.4472 | 0.6326 | 0.3996 | 0.6269 | 0.3515 | 0.4997 | 0.548 | 0.4685 | 0.5567 | 0.5871 | 0.3515 | 0.4796 | 0.6639 | 0.5303 | Array Heatmap signal, MORC3 (CW) [21]: 0.3408; Array Heatmap signal, DPF2 (PPC2W2) [22]: 0.6352; Array Heatmap signal, ING1 [23]: 0.5375; Array Heatmap signal, PHRF1 (RP) [24]: 0.4333; Array Heatmap signal, SP140L [25]: 0.3521; Array Heatmap signal, ING4 [26]: 0.4488; Array Heatmap signal, RAG2 [27]: 0.2608; Array Heatmap signal, CHD5 (PCC) [28]: 0.7282; Array Heatmap signal, CHD4 (PPCC) [29]: 0.6277; Array Heatmap signal, PHF8 [30]: 0.3445; Array Heatmap signal, KDM7A [31]: 0.3322
H3.3K27me2: H3.3 15-34 [Peptide H3.3K27me2] | 0.2764 | 0.5224 | 0.5964 | 0.504 | 0.5464 | 0.5196 | 0.5329 | 0.6291 | 0.5737 | 0.6552 | 0.3599 | 0.4717 | 0.5397 | 0.4966 | 0.607 | 0.5739 | 0.3925 | 0.5037 | 0.6851 | 0.5513 | Array Heatmap signal, MORC3 (CW) [21]: 0.404; Array Heatmap signal, DPF2 (PPC2W2) [22]: 0.6895; Array Heatmap signal, ING1 [23]: 0.5537; Array Heatmap signal, PHRF1 (RP) [24]: 0.4654; Array Heatmap signal, SP140L [25]: 0.3774; Array Heatmap signal, ING4 [26]: 0.4872; Array Heatmap signal, RAG2 [27]: 0.2646; Array Heatmap signal, CHD5 (PCC) [28]: 0.8298; Array Heatmap signal, CHD4 (PPCC) [29]: 0.613; Array Heatmap signal, PHF8 [30]: 0.3923; Array Heatmap signal, KDM7A [31]: 0.388
H3.3K27me3 + S28p: H3.3 15-34 | 0.2035 | 0.3549 | 0.582 | 0.4942 | 0.35 | 0.357 | 0.4021 | 0.4998 | 0.3112 | 0.5567 | 0.288 | 0.3655 | 0.4825 | 0.3578 | 0.4194 | 0.52 | 0.2601 | 0.4009 | 0.6255 | 0.4498 | Array Heatmap signal, MORC3 (CW) [21]: 0.3155; Array Heatmap signal, DPF2 (PPC2W2) [22]: 0.5839; Array Heatmap signal, ING1 [23]: 0.4657; Array Heatmap signal, PHRF1 (RP) [24]: 0.3794; Array Heatmap signal, SP140L [25]: 0.3164; Array Heatmap signal, ING4 [26]: 0.3661; Array Heatmap signal, RAG2 [27]: 0.2001; Array Heatmap signal, CHD5 (PCC) [28]: 0.7455; Array Heatmap signal, CHD4 (PPCC) [29]: 0.5244; Array Heatmap signal, PHF8 [30]: 0.2831; Array Heatmap signal, KDM7A [31]: 0.2454

Source: publication PMC6979384, “Characterization of the plant homeodomain (PHD) reader family for their histone tail interactions” (Epigenetics & Chromatin, 2020)
